Converted amounts (≈) assume the structure as drawn. Where two headings read alike, the source gives them in different places.
Legend:
[1] = system: B. subtilis PSB3; assay: MIC, broth microdilution, B. subtilis PSB3; type: cell-based, Bacillus subtilis; conditions: for MICvanc/MICi: ratio of MIC of vancomycin and MIC of analogue
Protocol: (§1) The minimum inhibitory concentration (MIC) was determined using the broth microdilution method according to the antimicrobial susceptibility testing standards of the clinical and laboratory standards institute ([Clinical and Laboratory Standards Institute [CLSI], 2012]). Ultrapure water and non-inoculated broth were used as controls. In one case, a final concentration of 10 μM vancomycin was included with the vancomycin analog or control antibiotic.

[2] = system: E. coli XL-1 blue MRF'; assay: MIC, broth microdilution, E. coli XL-1 blue MRF'; type: cell-based, Escherichia coli; conditions: E. coli XL-1 blue MRF'; for MICvanc/MICi: ratio of MIC of vancomycin and MIC of analogue
Protocol: as §1

[3] = system: E. faecalis VSE 1; assay: MIC, broth microdilution, vancomycin-sensitive E. faecalis (VSE 1); type: cell-based, Enterococcus faecalis; conditions: for MIC: read-out: MIC
Method in brief: (§2)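 Susceptibility was scored by broth microdilution (CLSI). In one instance each vancomycin analog or control antibiotic was tested in the presence of vancomycin, 10 μM final, and ultrapure water plus non-inoculated broth were included as controls.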

[4] = system: E. faecalis VRE 6; assay: MIC, broth microdilution, vancomycin-resistant E. faecalis VRE 6 (VanA); type: cell-based, Enterococcus faecalis; conditions: for MIC: read-out: MIC
Method in brief: as §2

[5] = system: E. faecalis VRE 53; assay: MIC, broth microdilution, vancomycin-resistant E. faecalis VRE 53 (VanA); type: cell-based, Enterococcus faecalis; conditions: for MIC: read-out: MIC
Method in brief: as §2

[6] = system: E. faecalis VRE 29; assay: MIC, broth microdilution, vancomycin-resistant E. faecalis VRE 29 (VanA); type: cell-based, Enterococcus faecalis
Method in brief: as §2

[7] = system: E. faecalis VRE 37; assay: MIC, broth microdilution, vancomycin-resistant E. faecalis VRE 37 (VanA); type: cell-based, Enterococcus faecalis
Method in brief: as §2

[8] = system: Murine leukemia (L1210) cells; assay: Cytostatic activity, L1210 cell proliferation; type: cell-based; conditions: mean ± SD of three experiments; highest concentration tested 250 µM; 2 days; read-out: Toxicity (IC50) L1210
Method in brief: (§3)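 Readout: Coulter cell number after drug exposure at 37°C. Durations differ by line (L1210 2 days; CEM 3 days; HeLa 4 days). Stock suspension 300,000–500,000 cells/mL, diluted by mixing with compound. Endpoint: IC50 vs negative control.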

[9] = system: human T-lymphocyte (CEM) cells; assay: Cytostatic activity, CEM cell proliferation; type: cell-based; conditions: mean ± SD of three experiments; highest concentration tested 250 µM; 3 days; read-out: Toxicity (IC50) CEM
Method in brief: as §3

[10] = system: human cervix carcinoma (HeLa) cells; assay: Cytostatic activity, HeLa cell proliferation; type: cell-based; conditions: mean ± SD of three experiments; highest concentration tested 250 µM; 4 days; read-out: Toxicity (IC50) HeLa
Method in brief: as §3

[11] = system: L1210, CEM and HeLa cell lines; assay: Cytostatic activity, average or summary over L1210, CEM and HeLa; type: cell-based
Method in brief: as §3

[12] = system: S. aureus VSSA (ATCC 6538); assay: MIC, broth microdilution, vancomycin-sensitive S. aureus (VSSA/MSSA, ATCC 6538); type: cell-based, Staphylococcus aureus; conditions: Staphylococcus aureus VSSA; read-out: MIC
Method in brief: as §2

[13] = system: S. aureus VISA/HIP5827; assay: MIC, broth microdilution, vancomycin-intermediate S. aureus VISA HIP5827; type: cell-based, Staphylococcus aureus
Method in brief: as §2

[14] = system: S. aureus VRSA; assay: MIC, broth microdilution, vancomycin-resistant S. aureus (VRSA); type: cell-based, Staphylococcus aureus
Method in brief: as §2

[15] = system: MRSA KS2; assay: MIC, broth microdilution, MRSA KS2; type: cell-based, Staphylococcus aureus; conditions: Staphylococcus aureus MRSA KS2; read-out: MIC
Method in brief: as §2

[16] = system: MRSA KS6; assay: MIC, broth microdilution, MRSA KS6; type: cell-based, Staphylococcus aureus
Method in brief: as §2

[17] = system: MRSA KS89; assay: MIC, broth microdilution, MRSA KS89; type: cell-based, Staphylococcus aureus
Method in brief: as §2

[18] = system: MRSA KS1; assay: MIC, broth microdilution, MRSA KS1; type: cell-based, Staphylococcus aureus; conditions: Staphylococcus aureus MRSA KS1; read-out: MIC
Method in brief: as §2

[19] = E. faecalis VSE 1, ratio of MIC of vancomycin and MIC of analogue
[20] = E. faecalis VRE 6, ratio of MIC of vancomycin and MIC of analogue
[21] = E. faecalis VRE 53, ratio of MIC of vancomycin and MIC of analogue

## C#CCCC(=O)NCCCNC(=O)C1NC(=O)C2NC(=O)C(NC(=O)C3NC(=O)C(CC(N)=O)NC(=O)C(NC(=O)C(CC(C)C)NC)C(O)c4ccc(c(Cl)c4)Oc4cc3cc(c4OC3OC(CO)C(O)C(O)C3OC3CC(C)(N)C(O)C(C)O3)Oc3ccc(cc3Cl)C2O)c2ccc(O)c(c2)-c2c(O)cc(O)cc21 (stereo not shown) [Vanc-B]
[1]
  MIC: 0.20 µM (≈ 0.317 µg/mL)
  MICvanc/MICi: 2
[2]
  MIC: 25 µM (≈ 39.6 µg/mL)
  MICvanc/MICi: 4
[3]; [19]
  MICvanc/MICi: 2
[3]; E. faecalis VSE 1
  MIC: 0.78 µM (≈ 1.24 µg/mL)
[3]; Enterococcus faecalis VSE 1 (vancomycin-sensitive)
  MIC: 0.78 µM (≈ 1.24 µg/mL)
[3]; VSE 1, ratio of MIC of vancomycin and MIC of analogue
  MIC-fold improvement vs. vancomycin: 2
[4]; [20]
  MICvanc/MICi: 4
[4]; E. faecalis VRE 6
  MIC: 50 µM (≈ 79.3 µg/mL)
[4]; Enterococcus faecalis VRE 6 (vancomycin-resistant)
  MIC: 50 µM (≈ 79.3 µg/mL)
[4]; VRE 6, ratio of MIC of vancomycin and MIC of analogue
  MIC-fold improvement vs. vancomycin: 4
[5]; [21]
  MICvanc/MICi: 32
[5]; E. faecalis VRE 53
  MIC: 12.5 µM (≈ 19.8 µg/mL)
[5]; Enterococcus faecalis VRE 53 (vancomycin-resistant)
  MIC: 12.5 µM (≈ 19.8 µg/mL)
[5]; VRE 53, ratio of MIC of vancomycin and MIC of analogue
  MIC-fold improvement vs. vancomycin: 32
[6]; Enterococcus faecalis VRE 29 (vancomycin-resistant), read-out: MIC
  MIC: 100 µM (≈ 159 µg/mL)
[6]; VRE 29, ratio of MIC of vancomycin and MIC of analogue
  MIC-fold improvement vs. vancomycin: 4
[7]; Enterococcus faecalis VRE 37 (vancomycin-resistant), read-out: MIC
  MIC: 100 µM (≈ 159 µg/mL)
[7]; VRE 37, ratio of MIC of vancomycin and MIC of analogue
  MIC-fold improvement vs. vancomycin: 8
[8]
  IC50: > 250 µM
[9]
  IC50: > 250 µM
[10]
  IC50: > 250 µM
[11]; average of L1210, CEM and HeLa, read-out: Toxicity (IC50) Average
  IC50: > 250 µM
[11]; summary over the three cell lines, read-out: IC50 (L1210, CEM, HeLa), depending on the cell line used
  IC50: > 250 µM
[12]
  MIC: 0.78 µM (≈ 1.24 µg/mL)
[13]; Staphylococcus aureus VISA/HIP5827, read-out: MIC
  MIC: 3.13 µM (≈ 4.96 µg/mL)
[13]; VISA/HIP5827, ratio of MIC of vancomycin and MIC of analogue
  MIC-fold improvement vs. vancomycin: 2
[14]; Staphylococcus aureus VRSA, read-out: MIC
  MIC: 12.5 µM (≈ 19.8 µg/mL)
[14]; VRSA, ratio of MIC of vancomycin and MIC of analogue
  MIC-fold improvement vs. vancomycin: 8
[15]
  MIC: 0.78 µM (≈ 1.24 µg/mL)
[16]; MRSA KS6, ratio of MIC of vancomycin and MIC of analogue
  MIC-fold improvement vs. vancomycin: 0.5
[16]; Staphylococcus aureus MRSA KS6, read-out: MIC
  MIC: 1.56 µM (≈ 2.47 µg/mL)
[17]; MRSA KS8, ratio of MIC of vancomycin and MIC of analogue
  MIC-fold improvement vs. vancomycin: 1
[17]; Staphylococcus aureus MRSA KS8, read-out: MIC
  MIC: 1.56 µM (≈ 2.47 µg/mL)
[18]
  MIC: 0.78 µM (≈ 1.24 µg/mL)

## C#CCNC(=O)[C@H]1NC(=O)[C@H]2NC(=O)[C@H](NC(=O)[C@@H]3NC(=O)[C@H](CC(N)=O)NC(=O)[C@H](NC(=O)[C@@H](CC(C)C)NC)[C@H](O)c4ccc(c(Cl)c4)Oc4cc3cc(c4O[C@@H]3O[C@H](CO)[C@@H](O)[C@H](O)[C@H]3O[C@H]3C[C@](C)(N)[C@H](O)[C@H](C)O3)Oc3ccc(cc3Cl)[C@H]2O)c2ccc(O)c(c2)-c2c(O)cc(O)cc21 [Vanc-G]
[1]
  MIC: 0.78 µM (≈ 1.16 µg/mL)
  MICvanc/MICi: 0.5
[2]
  MIC: 12.5 µM (≈ 18.6 µg/mL)
  MICvanc/MICi: 8
[3]; [19]
  MICvanc/MICi: 4
[3]; E. faecalis VSE 1
  MIC: 0.39 µM (≈ 0.58 µg/mL)
[4]; [20]
  MICvanc/MICi: 2
[4]; E. faecalis VRE 6
  MIC: 100 µM (≈ 149 µg/mL)
[5]; [21]
  MICvanc/MICi: 8
[5]; E. faecalis VRE 53
  MIC: 50 µM (≈ 74.3 µg/mL)
